Source: US9951064B2, “Azaindazole compounds as inhibitors of T790M containing EGFR mutants” (Genentech, Inc., priority 2013, dated 2018)

How the values were obtained:
[1] = target: T1, phosphor-EGFR in H1975(L585R/T790M) mutant EGFR expressing cells (Homo sapiens, UniProt P00533, L858R/T790M); experiment: H1975 pEGFR MSD cellular assay; assay type: cell-based; settings: NCI-H1975 cells, serum starved, 1 hour compound incubation, pEGFR Tyr1068 MSD; read-out: HI975 pEGFR EC50
T1 construct: host or cells: NCI-H1975
T1 sequence (P00533 25-1210 T790M/L858R): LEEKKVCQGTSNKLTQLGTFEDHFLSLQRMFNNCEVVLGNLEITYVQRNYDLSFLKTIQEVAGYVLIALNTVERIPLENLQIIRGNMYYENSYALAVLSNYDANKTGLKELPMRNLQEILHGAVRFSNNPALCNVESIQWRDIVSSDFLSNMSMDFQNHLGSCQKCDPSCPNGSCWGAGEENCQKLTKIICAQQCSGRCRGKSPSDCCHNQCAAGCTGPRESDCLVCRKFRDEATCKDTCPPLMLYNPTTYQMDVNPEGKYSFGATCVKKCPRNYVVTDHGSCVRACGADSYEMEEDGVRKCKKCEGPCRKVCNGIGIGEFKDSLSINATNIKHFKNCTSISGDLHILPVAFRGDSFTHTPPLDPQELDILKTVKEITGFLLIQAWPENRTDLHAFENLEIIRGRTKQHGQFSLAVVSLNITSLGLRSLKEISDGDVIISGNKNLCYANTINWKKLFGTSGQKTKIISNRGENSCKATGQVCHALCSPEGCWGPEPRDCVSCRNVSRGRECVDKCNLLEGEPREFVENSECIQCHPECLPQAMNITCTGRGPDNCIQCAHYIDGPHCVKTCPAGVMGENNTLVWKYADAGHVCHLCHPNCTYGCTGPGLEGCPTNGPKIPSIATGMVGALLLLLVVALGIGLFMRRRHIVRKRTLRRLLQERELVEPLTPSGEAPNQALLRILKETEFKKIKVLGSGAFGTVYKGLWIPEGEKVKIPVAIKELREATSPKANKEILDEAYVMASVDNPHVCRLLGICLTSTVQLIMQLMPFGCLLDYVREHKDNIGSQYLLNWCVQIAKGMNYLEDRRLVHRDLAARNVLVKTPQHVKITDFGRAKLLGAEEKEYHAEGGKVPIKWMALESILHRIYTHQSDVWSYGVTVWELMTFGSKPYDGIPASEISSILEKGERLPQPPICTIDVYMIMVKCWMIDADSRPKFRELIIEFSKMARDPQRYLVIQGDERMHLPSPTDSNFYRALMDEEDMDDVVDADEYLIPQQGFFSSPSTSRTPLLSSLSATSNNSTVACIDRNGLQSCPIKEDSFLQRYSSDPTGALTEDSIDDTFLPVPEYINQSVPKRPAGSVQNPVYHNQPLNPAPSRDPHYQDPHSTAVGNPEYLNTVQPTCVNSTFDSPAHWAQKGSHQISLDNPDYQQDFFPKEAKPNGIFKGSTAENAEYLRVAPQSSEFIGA
Procedure, shortened: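 NCI-H1975 cells, 30,000/well, serum-starved overnight, then treated 1 hour at 37° C with serially diluted compounds in serum-free medium (0.5% DMSO). Lysates captured on anti-phospho-EGFR plates overnight at 4° C, detected with SULFO-TAG anti-total EGFR by electrochemiluminescence. Inhibition vs untreated controls; EC50 from 4-parameter logistic fit.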

[2] = tested on: H1975 (EGFR T790M/L858R) cell proliferation; experiment: H1975 proliferation assay (Cell Titer-Glo); assay type: cell-based; settings: Homo sapiens, NCI-H1975, 72 h, NCI-H1975 cells, 72 hour incubation, read-out: H1975 antiproliferative EC50
Description: H1975 Proliferation Assays
All cell culture reagents were purchased from Invitrogen/Gibco. Cells are cultured at 37° C. at 5% CO2 and split as recommended by ATCC.

EGFR T790M L858R = target: T2, EGFR T790M L858R (Homo sapiens, UniProt P00533, L858R/T790M); experiment: EGFR T790M L858R biochemical assay (Caliper mobility shift); settings: 5 μM ATP; apparent Ki (Morrison fit) converted by Cheng-Prusoff, Km of ATP 1.3 μM
T2 construct: purchased Life Technologies PV4879
T2 sequence (P00533 25-1210 T790M/L858R): as above
Procedure, shortened: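 Reactions run 30 minutes at room temperature (22 °C), stopped with 80 mM EDTA. Phosphorylated product and substrate separated electrophoretically and quantified by Caliper mobility shift.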

EGFR del746-750 T790M = target: T3, EGFR del746-750 T790M (Homo sapiens, UniProt P00533, DEL746-750/T790M); experiment: EGFR del746-750 T790M biochemical assay (Caliper mobility shift); settings: 5 μM ATP; apparent Ki (Morrison fit) converted by Cheng-Prusoff, Km of ATP 2.1 μM; read-out: EGFR(T790M/d746-750) Ki
T3 construct: purchased Carna Biosciences 08-528
T3 sequence (P00533 with tags, fused parts or gaps DEL746-750/T790M limits assumed): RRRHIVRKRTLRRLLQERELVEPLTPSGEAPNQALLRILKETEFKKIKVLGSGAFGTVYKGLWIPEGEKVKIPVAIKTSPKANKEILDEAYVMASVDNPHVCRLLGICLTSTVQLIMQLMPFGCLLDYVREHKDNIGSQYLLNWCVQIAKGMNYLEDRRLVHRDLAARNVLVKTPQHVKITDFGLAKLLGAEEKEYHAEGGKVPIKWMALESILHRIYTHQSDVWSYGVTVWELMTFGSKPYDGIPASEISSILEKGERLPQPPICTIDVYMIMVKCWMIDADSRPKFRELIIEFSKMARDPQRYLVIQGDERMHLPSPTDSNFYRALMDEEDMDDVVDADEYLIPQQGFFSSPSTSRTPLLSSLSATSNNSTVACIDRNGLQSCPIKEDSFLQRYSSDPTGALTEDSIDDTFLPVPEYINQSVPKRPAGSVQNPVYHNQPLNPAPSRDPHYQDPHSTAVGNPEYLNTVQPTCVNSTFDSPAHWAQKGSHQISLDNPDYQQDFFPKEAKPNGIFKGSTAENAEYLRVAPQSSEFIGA
Procedure, shortened: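 Kinase reactions ran 30 min at room temperature (22 °C), then were stopped with 80 mM EDTA. Phosphorylated product and substrate were separated electrophoretically and quantified by Caliper mobility shift.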

For `CC[C@H](C)n1nc(N2CC3(COC3)C2)c2cnc(Nc3ccnc(N4CC[C@](C)(O)[C@H](F)C4)n3)cc21` (relative stereo) [Example 65, (3R*,4S*)-1-{4-[1-((S)-sec-Butyl)-3-(2-oxa-6-azaspiro[3.3]hept-6-yl)-1H-pyrazolo[4,3-c]pyridin-6-ylamino]pyrimidin-2-yl}-3-fluoro-4-methylpiperidin-4-ol], the EC50 [1] was 126 nM, the EC50 [2] was 874 nM and the Ki (EGFR T790M L858R) was 3.6 nM. It also gave a Ki (EGFR del746-750 T790M) of 9.6 nM.
Work on `CC[C@H](C)n1nc(N2CC[C@@H](O)C2)c2cnc(Nc3ccnc(N4CC[C@](C)(O)[C@H](F)C4)n3)cc21` (relative stereo) [Example 69, (3R*,4S*)-1-{4-[1-((S)-sec-Butyl)-3-((R)-3-hydroxypyrrolidin-1-yl)-1H-pyrazolo[4,3-c]pyridin-6-ylamino]pyrimidin-2-yl}-3-fluoro-4-methylpiperidin-4-ol] yielded an EC50 [1] of 67.9 nM, an EC50 [2] of 521 nM and a Ki (EGFR T790M L858R) of 1.7 nM. For the same molecule, the Ki (EGFR del746-750 T790M) was 2.9 nM.
`CC[C@H](C)n1nc(N2CC[C@H](O)C2)c2cnc(Nc3ccnc(N4CC[C@](C)(O)[C@H](F)C4)n3)cc21` (relative stereo) [Example 70, (3R*,4S*)-1-{4-[1-((S)-sec-Butyl)-3-((S)-3-hydroxypyrrolidin-1-yl)-1H-pyrazolo[4,3-c]pyridin-6-ylamino]pyrimidin-2-yl}-3-fluoro-4-methylpiperidin-4-ol] showed an EC50 [1] of 83 nM, an EC50 [2] of 371 nM and a Ki (EGFR T790M L858R) of 2 nM. The Ki (EGFR del746-750 T790M) was 2.3 nM.
`CC(n1nc(N2CC[C@@H](O)C2)c2cnc(Nc3ccnc(N4CC[C@](C)(O)[C@H](F)C4)n3)cc21)C(F)(F)F` (relative stereo) [Example 79, (3RS,4SR)-3-Fluoro-1-(4-(3-((R)-3-hydroxypyrrolidin-1-yl)-1-((S*)-1,1,1-trifluoropropan-2-yl)-1H-pyrazolo[4,3-c]pyridin-6-ylamino)pyrimidin-2-yl)-4-methylpiperidin-4-ol] gave an EC50 [1] of 165 nM, an EC50 [2] of 906 nM and a Ki (EGFR T790M L858R) of 3.3 nM. For the same molecule, the Ki (EGFR del746-750 T790M) was 5.9 nM.
`CC(C)n1nc(N2CCC(C)(O)C2)c2cnc(Nc3ccnc(N4CC[C@@H](O)[C@@H](F)C4)n3)cc21` (relative stereo) [Example 104, (3S*,4R*)-3-fluoro-1-(4-((3-(3-hydroxy-3-methylpyrrolidin-1-yl)-1-isopropyl-1H-pyrazolo[4,3-c]pyridin-6-yl)amino)pyrimidin-2-yl)piperidin-4-ol] gave an EC50 [1] of 71.6 nM, an EC50 [2] of 404 nM and a Ki (EGFR T790M L858R) of 1.6 nM. It also gave a Ki (EGFR del746-750 T790M) of 1.9 nM.
In the case of `CC1CN(c2nn(C(C)C)c3cc(Nc4ccnc(N5CC[C@H](O)[C@H](F)C5)n4)ncc23)C(=O)N1` (relative stereo) [Example 127, 1-(6-(2-(cis-3-Fluoro-4-hydroxypiperidin-1-yl)pyrimidin-4-ylamino)-1-isopropyl-1H-pyrazolo[4,3-c]pyridin-3-yl)-4-methylimidazolidin-2-one], the EC50 [1] is reported as 466 nM, the EC50 [2] is reported as 1380 nM and the Ki (EGFR T790M L858R) is reported as 2.5 nM. The Ki (EGFR del746-750 T790M) was 6 nM.
Molecule `CC1CNC(=O)N1c1nn(C(C)C)c2cc(Nc3ccnc(N4CC[C@H](O)[C@H](F)C4)n3)ncc12` (relative stereo) [Example 128, 1-(6-(2-(cis-3-Fluoro-4-hydroxypiperidin-1-yl)pyrimidin-4-ylamino)-1-isopropyl-1H-pyrazolo[4,3-c]pyridin-3-yl)-5-methylimidazolidin-2-one] has an EC50 [1] of 919 nM, an EC50 [2] of 2040 nM and a Ki (EGFR T790M L858R) of 6.2 nM. The Ki (EGFR del746-750 T790M) was 15.5 nM.
`CC(C)n1nc(N2C[C@@H](O)[C@H](F)C2)c2cnc(Nc3ccnc(N4CC[C@H](O)[C@H](F)C4)n3)cc21` (relative stereo) [Example 131, cis-3-Fluoro-1-(4-(3-(trans-3-fluoro-4-hydroxypyrrolidin-1-yl)-1-isopropyl-1H-pyrazolo[4,3-c]pyridin-6-ylamino)pyrimidin-2-yl)piperidin-4-ol] showed an EC50 [1] of 129 nM, an EC50 [2] of 1480 nM and a Ki (EGFR T790M L858R) of 0.8 nM. It also gave a Ki (EGFR del746-750 T790M) of 1.2 nM.
